PubChem BioAssay (NCI)
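1) Cells in 96-well plates. 2) Compound, 48 h, 5 concentrations. 3) Linear interpolation between surrounding doses. 4) Unreached endpoint = highest concentration. GI50 marks 50% less growth. TGI: total growth inhibition.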

Tested on: MDA-MB-468 breast
Experiment: NCI tumour cell line growth inhibition, 48 h

| SMILES | GI50 | TGI |
| --- | --- | --- |
| COc1ccc(C(=O)/C=C/c2c(C(F)(F)F)nc3sccn23)cc1OC | 6.18 µM | > 100 µM |
| Cc1cc(NC(=O)NC(=O)c2ccccc2N)ccc1Oc1ncc(Br)cn1 | < 0.01 µM | > 100 µM |
| Cc1ccc2cc3c(ccc4ccccc43)c3c2c1CC3 | 0.169 µM | 0.372 µM |
| C[C@H]1[C@H](C)CC[C@]2(C(=O)N3CCN(C)CC3)CC[C@]3(C)C(=CC[C@@H]4[C@@]5(C)C/C(=C/c6cccnc6)C(=O)C(C)(C)[C@@H]5CC[C@]43C)[C@H]12 | 0.665 µM | 2.04 µM |
| C=CC1=C[C@@H]2[C@@H]3O[C@]4(CC[C@H](O4)[C@@H](C)C[C@@H](O)C3=O)C[C@H](O)C3=NCC[C@@]32CC1 | < 0.00333 µM | < 0.00333 µM |
| CC(C)(C)c1cc(NC(=O)Nc2ccc(-c3cn4c5c(sc4n3)CCc3c[nH]cc3-5)cc2)no1 | 1.97 µM | 32.8 µM |
| CN(C)c1ccc(-c2cc(-c3ccc(Nc4nc(Nc5ccccc5)nc(Nc5ccc(Cl)cc5)n4)cc3)nc(N)n2)cc1 | 7.91 µM | > 100 µM |
| COc1ccn2c(C(C)=O)cc(C(=O)c3ccc4c(c3)Sc3ccccc3N4)c2c1 | 0.159 µM | > 24.8 µM |
| COc1cc(Cn2c(=S)ss/c2=N\C(=S)N(C)C)cc(OC)c1OC | 7.04 µM | > 100 µM |
| CCc1cccc2c3c(sc12)C(c1ccc(Cl)cc1)C(C#N)=C(N)O3 (stereo unspecified) | 0.28 µM | 1.02 µM |
| COc1ccc2c(c1)c(-c1nc(-c3c[nH]c4ncccc34)cs1)cn2CCCCN1CCOCC1 | 1.95 µM | 3.98 µM |
| Cn1ccc2c(c1=O)C(=O)c1nccc3c1c-2nc1ccccc13 | 1.44 µM | 2.81 µM |
| Cc1nc2sc(C(=O)Nc3cccc4ccccc34)c(N)c2cc1C(=O)/C=C/c1ccccc1 | 0.194 µM | 0.745 µM |
| COC(=O)c1cc(-c2cc(OC)c(OC)c(OC)c2)[nH]c1N/N=C/c1c(Cl)cccc1Cl | 8.29 µM | 48.2 µM |
| COc1ccc(-c2cnnn2-c2cc(OC)c3c(c2)OCO3)cc1 | 0.0565 µM | > 100 µM |
| CC(CN1CCN(C)CC1)CN1c2ccccc2Sc2ccc(C(F)(F)F)cc21 (stereo unspecified) | 1.63 µM | 3.22 µM |
| C[C@]12CC[C@@H]3c4ccc(O)cc4CC[C@H]3[C@@H]1CC[C@@H]2NS(=O)(=O)c1cccc(C(F)(F)F)c1 | 4.08 µM | 16.9 µM |
| Cc1nc2cnc3cc(F)c(-c4ccc(Oc5ncccn5)cc4Cl)cc3c2n1[C@H]1CCN(C(=O)CO)C[C@@H]1F | 9.47 µM | 28.9 µM |
| CCCCCc1ccc(S(=O)(=O)Nc2cccc(-c3csc(NCCN4CCN(C)CC4)n3)c2)cc1 | 1.63 µM | 3.16 µM |
| O=C1/C(=C/c2ccc([N+](=O)[O-])o2)Oc2ccc(Br)cc21 | 2.02 µM | 4.46 µM |
| CCN1CCN(CC(=O)Nc2nc3ccc(NCc4ccc(Cl)cc4)cc3s2)CC1 | 1.77 µM | 4.61 µM |
| COc1ccc(C/C(C)=C(\c2ccc(OCCN3CCOCC3)cc2)c2ccc(OC(=O)Cc3ccccc3)cc2)cc1 | 0.514 µM | 1.47 µM |
| CS(=O)(=O)c1ccc(-c2cnc(N)c(C(=O)Nc3ccccc3)n2)cc1 | > 37.2 µM | > 100 µM |

| SMILES | GI50 | TGI |
| --- | --- | --- |
| CCCCCCCCCCCCCCCC[N+](C)(C)CCN(Cc1ccc(OC)cc1)c1ncccn1 | 1.04 µM | 3.58 µM |
| COc1ccc(-c2nnc(SCC(=O)Nc3ccc(/C(C)=N\O)cc3)n2-c2ccccc2)cc1OC | 16.4 µM | > 100 µM |
| O=C1c2ccc3c4c5ccc(c24)C(=O)N1CCCOCCCCOCCCNCc1ccc(cc1)CNCCCOCCCCOCCCN(C3=O)C5=O | 0.802 µM | 1.65 µM |
| NC(=O)c1cc([N+](=O)[O-])c(Cl)c([N+](=O)[O-])c1 | 1.67 µM | 3.32 µM |
| COc1cc(C(O)c2nc3ccccc3s2)cc(OC)c1OC (stereo unspecified) | 5.68 µM | 57.2 µM |
| C/C(=C\c1ccn(-c2ccc(N)c(F)c2)n1)[C@@H]1C[C@@H]2O[C@]2(C)CCC[C@H](C)[C@H](O)[C@@H](C)C(=O)C(C)(C)[C@@H](O)CC(=O)O1 | 0.00996 µM |  |
| Cn1ccnc1C(=O)/C=C/c1ccc(CC(=O)Nc2ccc(S(F)(F)(F)(F)F)cc2)cc1 | 2.48 µM | 5.17 µM |
| CN1CCN(c2nc(NCCCCNc3ccnc4cc(Cl)ccc34)c3ccccc3n2)CC1 | 1.58 µM | 3.66 µM |
| COc1ccc(-c2cc(-c3ccccc3)nc(N3CCN(CCNc4ccnc5cc(Cl)ccc45)CC3)n2)cc1 | 1.22 µM | 2.62 µM |
| CC(C)[C@@]12C[C@@H](OC(=O)COC(=O)/C=C/c3ccccc3)[C@@](C)(O1)[C@@H]1CC[C@@H](C)[C@H]1[C@@H]2OC(=O)/C=C/c1ccccc1 | > 61.4 µM | > 100 µM |
| C=CCNCCCN1C(=O)c2ccc3c4c(ccc(c24)C1=O)C(=O)N(CCCNCC=C)C3=O | 0.177 µM | 0.423 µM |
| O=C1/C(=C/c2ccccc2F)CNC/C1=C\c1ccccc1F | 0.626 µM | 2.75 µM |
| NC1=C(Br)C(=O)c2ncccc2C1=O | 0.57 µM | 2.13 µM |
| CN(c1ccc(NC(=O)Nc2ccc(OC(F)(F)F)cc2)cc1)c1ccnc(Nc2cccc(S(N)(=O)=O)c2)n1 | 3.93 µM | 8.86 µM |
| CCN(CCNc1ccc(C)c2sc3cc(Cl)ccc3c(=O)c12)CC(C)O (stereo unspecified) | 1.74 µM | 3.39 µM |
| O=C1CC(c2ccc3c(c2)OCO3)Nc2cc3c(cc21)OCO3 (stereo unspecified) | 0.295 µM | 0.924 µM |
| N=c1c2c(-c3ccccc3)c(-c3ccccc3)n(Cc3ccccc3)c2ncn1CCCO | 0.581 µM | 2.09 µM |
| O=C(CCCCCCSc1nc(-c2ccccc2)cc(-c2ccccc2)n1)NO | 2.77 µM | 10.5 µM |
| C=C(C)[C@@H]1CC[C@]2(C(=O)NCCNCCNCCN)CC[C@]3(C)[C@H](CC[C@@H]4[C@@]5(C)CC[C@H](O)C(C)(C)[C@@H]5CC[C@]43C)[C@@H]12 | 8.88 µM | 22.7 µM |
| N#Cc1c2cccnc2c2nnc3cc(Cl)c(Cl)cc3n12 | 1.1 µM | 2.59 µM |
| Cn1c(=O)c(Oc2ccc(F)cc2F)cc2cnc(NC(CO)CO)nc21 | > 25 µM | > 25 µM |
| CC1=CCC(OC(=O)C(C)(C)CCC(O)(C(=O)OC2(C(C)C)CCC3(C)OC3C2)C(C)C)(C(C)C)CC1 (stereo unspecified) | 0.351 µM | 1.24 µM |
| COc1ccc(C(=O)COc2cccc(/C=C3\CSc4ccccc4C3=O)c2)cc1 | 1.42 µM | 2.93 µM |
